| melting point [°C] | SMILES |
| --- | --- |
| 116 | O=Cc1cccc2oc(-c3ccccc3)nc12 |
| 84 | O=Cc1ccc(Cl)c(-c2ccccc2)c1 |
| 177 to 179 | COC(=O)CCNC(=O)c1cc(NC(=O)c2ccc(C(=N)NC(=O)OC(C)(C)C)cc2)ccc1O |
| 220 to 224 | O=[N+]([O-])c1ccc2c(c1)C(c1ccccc1F)=[N+]([O-])C(CCl)N2 (stereo not given) |
| 49 to 51 | CC(C)CCCCNC(=O)n1sc2ccccc2c1=O |
| 103 to 105 | O=Cc1cc(Cl)ccc1Oc1ccccc1[N+](=O)[O-] |
| 133 to 135 | CC(C(=O)N(C)C)n1nc(-c2ccccc2)cc1-c1ccccc1 (stereo not given) |
| 197 to 200 | CC(C(O)c1ccc2nc(N)sc2c1)N1CCC(Cc2ccccc2)CC1 (stereo not given) |
| 96 to 102 | Clc1ccc(OCc2noc(-c3ccccc3)n2)cc1 |
| 72 to 74 | CCCCOC(=O)CS(=O)C(C)c1ccc(-c2ccccc2F)cc1 (stereo not given) |
| 99 to 101 | Cc1ccc(S(=O)(=O)N[C@H](COS(=O)(=O)c2ccc(C)cc2)CC(C)C)cc1 |
| 227 to 229 | Cn1cc2c(OCC3COC(Cn4ccnc4)(c4ccc(Cl)cc4Cl)O3)cc(-c3ccccc3)nc2n1 (stereo not given) |
| 199 to 200 | N#Cc1cnn2c1N(C(=O)CN1CCC(c3ccccc3)CC1)CC=C2c1cc(Cl)ccc1Cl |
| 82 to 83 | COC(=O)c1ccccc1C=Nc1cc(C)ccc1O |
| 229 to 230 | O=C(Nc1c(C(F)(F)F)n[nH]c1-c1ccccc1)c1ccccc1 |
| 219 to 220 | CCCCc1ncc(/C=C/C=C/C(=O)O)n1Cc1ccccc1Cl |
| 176 to 182 | Nc1sc2c(c1C(=O)c1ccc3c(c1)Cc1ccccc1-3)CCC2 |
| 138 | CCCCc1ccc(NC(=O)c2ccc(N)cc2)cc1 |
| 91 to 92 | CCc1c(C(=O)N2CCN(CCCCc3c[nH]c4ccc(F)cc34)CC2)nc(-c2ccccc2Cl)n1-c1ccc(Cl)cc1 |
| 90 to 91 | CON=C(c1cnco1)c1ccccc1COc1cc(C)ccc1C |
| 252 | O=C(Nc1ccc(C=C2c3ccccc3CCc3ccccc32)cc1)c1ccncc1 |
| 142 to 143 | O=C(CCl)CC(=O)Nc1ccccc1 |
| 126 | Nc1nc(Nc2ccccc2)c2[nH]cnc2n1 |
| 133 to 136 | O=C(O)c1ccc(OCC2CCN(CCOc3ccc4c(c3)OCO4)CC2)cc1 |

| melting point [°C] | SMILES |
| --- | --- |
| 68 to 75 | CN(C)Cc1cc(-c2c(-c3ccc(F)cc3)nn3c(Cl)cccc23)nc(NC2CCCC2)n1 |
| 269 to 271 | NS(=O)(=O)c1ccc(NC(=O)Nc2ccc(Br)cc2)cc1 |
| 110 | CS(=O)(=O)c1cc(OC[C@@H](O)CN[C@H]2CC[C@H](c3ccc(C(=O)N4Cc5ccccc5C4)cc3)CC2)ccc1O |
| 47 | O=C(CCl)c1ccc(-c2ccccc2Cl)cc1 |
| 253 | CCN(CC)c1ccc(-c2cc(-c3ccc(C(=O)O)cc3)ccc2CCCNC2CCCCC2)cc1C(C)(C)C |
| 152 to 154 | COCCNc1ccc2ncnc(Nc3ccc(F)c(Cl)c3)c2c1 |
| 134 to 136 | COc1ccc2c(c1CNC(=O)OCC1c3ccccc3-c3ccccc31)Oc1c(ccc(OC)c1CC(=O)O)C2(C)C |
| 218 to 220 | CC1Cc2c(n(-c3ccc(Cl)c(Cl)c3)c3ncccc3c2=O)O1 (stereo not given) |
| 106 to 108 | NCCCNc1cccc2c1C(=O)c1ccccc1C2=O |
| 87 to 89 | O=C(O)C(Cc1ccccc1)Oc1c(Br)cc(-c2ccc(-c3c(Cc4ccccc4)sc4ccccc34)cc2)cc1Br (stereo not given) |
| 208 to 210 | O=c1nc(-c2cccc(S(=O)Cc3ccccc3)n2)sc2ccccc12 (stereo not given) |
| 146 to 148 | CCCc1c(COc2ccc(C(=O)c3cccc(C#N)c3)cc2)ccc(C(C)=O)c1O |
| 72 to 74 | CC(=O)OC1SCC2C1N(Cc1ccccc1)C(=O)N2Cc1ccccc1 (stereo not given) |
| 140 | O=C(O)[C@@H]1C[C@@H](O)CN1S(=O)(=O)c1ccc2ccccc2c1 |
| 84 | Cc1c(C#N)cccc1C(=O)c1ccc(Cl)cc1 |
| 195 to 196 | O=C(N[C@H](Cc1ccc(C(F)(F)F)cc1)[C@@H](O)c1cccc2ccccc12)c1ccc(F)c2ccccc12 (racemic) |
| 119 | Cc1ccnc(N2CCN(CCCCC3Sc4ccccc4NC3=O)CC2)c1 (stereo not given) |
| 123 to 124 | CCN(CC)CCOc1ccc(Nc2ncc3c(n2)N(C)C(=O)N(c2c(Cl)cccc2Cl)C3)cc1 |
| 167 to 175 | N#Cc1ccc(-c2cn(-c3ccc(C#N)cc3)c(CC3(O)C=CC=CN3)n2)cc1 (stereo not given) |
| 220 to 222 | CN1C(=O)CCC2(C)c3ccc(NC(=O)c4ccccc4)cc3CCC12 (single isomer, unassigned; (+)) |
| 230 to 233 | N#Cc1cnc2c(sc3ccccc32)c1Nc1ccc(Oc2ccccc2)cc1 |
| 71 to 77 | CCCCn1c(CC)ccc1C(=O)c1cccc(N)c1 |
| 124 to 127 | CCOC1=CC(=O)C(C(=O)OC)C(c2ccc(C)cc2)C1 (stereo not given) |

The remaining lines, values behind:

| SMILES | melting point [°C] |
| --- | --- |
| CC1(C)CC(N2CCCC2)=CC(=C(C#N)C(O)C#N)C1 (stereo not given) | 246 to 247 |
| C#CCSc1ncc(Cl)cn1 | 66 |
| CC(=O)NC[C@H]1CN(c2ccc(N3CCC(F)(CO)CC3)c(F)c2)C(=O)O1 | 154 to 156 |
| CC(C)CC[C@H](O)[C@H](CC1CCCCC1)NC(=O)[C@H](Cc1c[nH]cn1)NC(=O)[C@H](Cc1ccccc1)NC(=O)N1CCOCC1 | 108 to 110 |
| O=[N+]([O-])c1ccc2c(c1)S(=O)(=O)NCN2CC(F)(F)F | 191 to 193 |
| COc1cc(C=CC(=O)OC2C(O)C3CC(OC(=O)c4cc(OC)c(OC)c(OC)c4)CC2[N+]3(C)[O-])cc(OC)c1OC (stereo not given) | 118 to 121 |
| CC(C)C1(C)NC(c2ncc(CO)cc2C(=O)O)=NC1=O (stereo not given) | 170 to 172 |
| CCc1ccc(Cc2cn(C3OC(COC(=O)c4ccccc4)C(O)C(OC(=O)c4ccccc4)C3OC(=O)c3ccccc3)c3cccc(Cl)c23)cc1 (stereo not given) | 192 to 193 |
| Cc1ccc(S(=O)(=O)NCl)cc1 | 201 to 206 |
| CCCn1c(=O)c2[nH]c(-c3ccc(C=C(C(=O)OCC)C(=O)OCC)o3)nc2n(CCC)c1=O | 220 to 222 |
| N#Cc1cn(COCCO)c2ncnc(N)c12 | 178 |
| COc1nc(SC)nc(OC)c1C1CC(=O)C=C(O)C1 (stereo not given) | 195 to 200 |
| Cc1noc(=O)c2ccc(NC(=O)C(C)(O)CC3(c4cccc(C(F)(F)F)c4)CC3)cc12 (stereo not given) | 75 to 76 |
| CSc1ccc2nc(-c3cccc(C)c3)c(-c3ccnc(NC4CCCCC4)c3)n2n1 | 150 to 151 |
| CC(=O)Nc1cc(C)c2c(c1C)CC(C)(C)O2 | 161 to 162 |
| COC(=O)/C=C/c1ccc(C)cc1C#N | 95 to 96 |
| CC(C)(C)c1cccc(S(=O)(=O)Nc2ncc(C(F)(F)F)cc2I)c1 | 135 |
| CC(C)(C)c1cc(C(c2ccccc2)N(O)C(N)=O)cc(C(C)(C)C)c1O (stereo not given) | 188 to 189 |
| Cc1c(F)c(Oc2cc(C(F)(F)F)nn2C)nc(Oc2cc(C(F)(F)F)nn2C)c1F | 101 |
| COc1cc2c(c3c1OC(C)(C)C3)C(c1cccc(N3CCN(CC(N)=O)S3(=O)=O)c1)=NC(C)(C)C2 | 206 to 208 |
| O=C1CCCCCCCCCCCCCCCCCCCCCCC1O (stereo not given) | 39 to 40 |
| CCOC(=O)C1=C(C)Nc2nc(N3CCOCC3)nc(N3CCOCC3)c2C1c1cccc([N+](=O)[O-])c1 (stereo not given) | 190 |
| CCOP(=O)(CN1CCC(N(C)S(=O)(=O)c2ccc(Nc3nccc(Nc4ccc(F)c(F)c4)n3)cc2)CC1)OCC | 138 |
| CCOc1nn(-c2ccc(C(F)(F)F)cn2)cc1CCO | 75 to 76 |

| SMILES | melting point [°C] |
| --- | --- |
| CC(=O)SC1CN(C(C(=O)C2CC2)c2ccccc2F)C1 (stereo not given) | 49 to 52 |
| COc1ccc2c(c1)CCCC21NC(=O)NC1=O (stereo not given) | 218 to 220 |
| CC(O)CCCCCCCC(O)c1ccc(OCc2ccccc2)c(OCc2ccccc2)c1 (stereo not given) | 66 |
| CN1C(=O)[C@H](NC(=O)/C=C/c2ccc3c(c2)OCO3)N=C(c2ccccc2)c2ccccc21 | 143 to 145 |
| CC(C)c1cc(C(=O)Nc2ccc(C(=O)O)c(O)c2)oc1C(C)C | 179 to 180 |
| CC(CNC1CC(C)(C)NC(C)(C)C1)C(=O)NC1CC(C)(C)NC(C)(C)C1 (stereo not given) | 116 |
| CN(C)c1cc(OC(F)(F)F)cc2sc(N)nc12 | 184 |
| COc1cccc2sc(C3(O)CCN(C(=O)OC(C)(C)C)C(C)C3)cc12 (stereo not given) | 73 to 76 |
| COc1cc(N)ccc1C(=O)O | 144 to 146 |
| CC(C)CC1N=C(c2ccccc2)c2cc(Cl)ccc2N=C1NN (stereo not given) | 165 to 168 |
| CC(C)(C)CN1C(=O)C(=O)N(c2cccnc2)C1=S | 111 to 113 |
| CC1(C)CC2(CC(C)(C)c3ccc(Oc4ccc(N)cc4)cc32)c2cc(Oc3ccc(N)cc3)ccc21 | 214 to 215 |
| O=P(O)(O)C(NCCCCOc1ccccc1)P(=O)(O)O | 206 to 208 |
| O=C1CC(C(F)(F)F)Oc2cc(Cl)c(Cl)cc21 (stereo not given) | 94.5 to 97 |
| CCC12OC[C@@H](O1)[C@@H](O)C[C@H]2OC | 43 to 44 |
| O=[N+]([O-])c1ccc(OC23CC4CC(CC(C4)C2)C3)cc1 | 132 to 134 |
| CC(C)Cn1c(=O)n(C)c(=O)c2cc(Cc3cccc(F)c3)sc21 | 76 to 78 |
| CC(C(=O)C=CC1C(OC(=O)c2ccccc2)CC2OC(=O)CC21)C1C=CCC1 (mixture of isomers) | 85 to 87.5 |
| CC(CN1CC(=O)N(CN2CCN(C)CC2)C(=O)C1)N1CC(=O)N(CN2CCN(C)CC2)C(=O)C1 (stereo not given) | 93 to 96 |
| CCOC(=O)CN=C1N[C@](C)(Cc2ccc(Br)cc2)C(=O)N1c1cc(Cl)cc(Cl)c1 | 103 to 105 |
| COC(=O)c1ccc(C#CC(O)c2cccc3c2OCCC3(C)C)cc1O (stereo not given) | 122 to 123 |
| CCCC1CCC(c2ccc(-c3cc(F)c(C(F)(F)Oc4cc(F)c(C(F)(F)F)c(F)c4)c(F)c3)c(F)c2)CC1 (stereo not given) | 86 |
| CC(C)OC(=O)c1cc(-n2c(N)c(C#N)cnc2=O)c(F)cc1Cl | 212 to 213 |
| Fc1ccc(F)c2c(NCCc3ccc(Oc4ccnc(C(F)(F)F)c4)cc3)ncnc12 | 95 to 96 |

— a melting point compilation (Tetko et al.; mined from patent text by program, amines drawn as free bases though some values may be those of a salt)
